Experimental findings from ChEMBL document CHEMBL4725266, “Decaturenol A and known oxalicine related meroterpenoids isolated from Penicillium decaturense RO050, and their new biological activities” (Bioorg Med Chem Lett, 2020) are described below.

Calls of active or inactive are those of the source. No cut-off for these calls is given here.

Data set [1] deals with HT-22. Put plainly: Protection against TM mediated ER stress-induced cell death in mouse HT-22 cells assessed as increase in cell viability at 10 uM incubated for 24 hrs by MTT assay. The data set is classed as functional, cell-based. For orientation: Tetrazolium dyes change colour on reduction, which living cells bring about.
In a further data set the test system is BMDM. Nature of the data set: Inhibition of IL-10-induced CD163 expression in human MDM cells at 20 ug/ml incubated for 24 hrs by ELISA. The settings on record: dose 20.0 µg/ml. It is filed as functional, cell-based. Background: ELISA stands for enzyme-linked immunosorbent assay.
A short description of data set [2]: Cytotoxicity against human MDM cells assessed as reduction in cell viability at 20 ug/ml incubated for 24 hrs by MTT assay. The data set is classed as cell-based. The settings on record: dose 20 µg/ml.
A short description of data set [3]: Cytotoxicity against human MDM cells assessed as reduction in cell viability at 20 ug/ml incubated for 48 hrs by MTT assay. To be noted: dose 20 µg/ml. It is filed as cell-based.
Data set [4] is described as follows: Cytotoxicity against human MDM cells assessed as reduction in cell viability at 40 ug/ml incubated for 24 hrs by MTT assay. The data set is classed as cell-based. To be noted: dose 40 µg/ml.
In data set [5] the test system is HT-22. Nature of the data set: Cytotoxicity against mouse HT-22 cells assessed as reduction in cell viability at 10 uM incubated for 24 hrs by MTT assay. The data set is classed as cell-based. To be noted: ht-22, 24 h.
Data set [6] deals with HT-22. Nature of the data set: Cytotoxicity against mouse HT-22 cells assessed as reduction in cell viability at 10 uM incubated for 24 hrs in presence of tunicamycin by MTT assay. It is filed as cell-based. To be noted: ht-22, 24 h.
Data set [7] deals with HT-22. Nature of the data set: Cytotoxicity against mouse HT-22 cells assessed as reduction in cell viability at incubated for 24 hrs by MTT assay. The data set is classed as cell-based. To be noted: HT-22, 24 h.

For the molecule `CC1=CC[C@@H]2[C@@]3(C)CCC(=O)C(C)(C)[C@@H]3CC[C@@]2(C)[C@]12Cc1c(cc(-c3cccnc3)oc1=O)O2` [DECATURIN D], the result with HT-22 [1] was Active. In addition, the inhibition result in the data set with BMDM is “Active”. Moreover, the Activity entry is reported as “Non-Toxic” in data set [2], “Toxic” in data set [3], “Toxic” in data set [4] and “Toxic” in the data set with HT-22 [5].

In the case of `C=C(C)[C@@H]1CC[C@]2(C)[C@H](CC=C(C)[C@]23Oc2cc(-c4cccnc4)oc(=O)c2[C@@H]3O)[C@@]12CCC(=O)OC2` [OXALICINE A], the Activity result with HT-22 [6] is “Toxic”. In addition, the IC50 (usually the concentration that inhibits the measured activity by half) in the data set with HT-22 [7] was 5.9 µM.

As to `CC1=CC[C@@H]2[C@]34CC[C@](O)(OC3)C(C)(C)[C@@H]4CC[C@@]2(C)[C@@]12Oc1cc(-c3cccnc3)oc(=O)c1[C@@H]2O` [DECATURIN B], the outcome in the data set on HT-22 [1] was Active. The inhibition entry in the data set on BMDM was “Active”. For the same molecule, the Activity result is listed as “Non-Toxic” in data set [2], “Toxic” in data set [3], “Toxic” in data set [4] and “Toxic” in the data set with HT-22 [5].

In the case of `C/C(=C\CC/C(C)=C/Cc1c(O)cc(-c2cccnc2)oc1=O)CC/C=C(\C)CCC(O)C(C)(C)O` (centres undefined), the outcome in the data set on HT-22 [1] was Active. Besides, the inhibition entry in the data set with BMDM was “Active”. The Activity result in data set [2] was “Non-Toxic”; in data set [3], “Toxic”; in data set [4], “Toxic”; in the data set on HT-22 [5] it was “Non-Toxic”.

As for `CC1=CC[C@@H]2[C@@]3(C)CC[C@H](O)C(C)(C)[C@@H]3CC[C@@]2(C)[C@]12Cc1c(cc(-c3cccnc3)oc1=O)O2`, the inhibition result with BMDM was “Active”. In addition, the Activity entry is given as “Non-Toxic” in data set [2], “Toxic” in data set [3] and “Toxic” in data set [4].
